Assay [1] has as its system picryl chloride-induced delayed type hypersensitivity. As to the kind of experiment: Inhibitory effect on picryl chloride-induced delayed type hypersensitivity (ear swelling). As to conditions: BALB/C female mice, oral, once a day for 7 days, dose 10 mg/kg. The class given is in vivo. The procedure:
EXPERIMENT 2 Inhibitory effect on picryl chloride-induced delayed type
BALB/C female mice (10-week-old) were sensitized by spreading one ml of an ethanol solution containing 7 w/v % of picryl chloride to abdominal skin of the mice. In a "test group", a test compound was administered orally to the mice a day for 7 days from the day of sensitization.
7 Days after the sensitization, 10 μl of an olive oil solution containing 1 w/v % of picryl chloride was spread to both side skin of left external ear. 24 Hours later, the mice was sacrificed and the thickness of both ears was immediately measured.
The inhibition (%) of swelling of exterernal ear was calculated according to the following formula: [formula]

Assay [2] can be described thus: Immunomodulatory effect (general statement, no method).

SMILES strings stand for the structures. Where a SMILES comes first, the peptide text is derived from it.

As to `COC(=O)[C@H](Cc1c[nH]cn1)NC(=O)[C@H](Cc1ccccc1)NC(=O)N(Cc1ccccc1)NC(=O)OC(C)(C)C` [Example 13, 3-tert-butoxycarbonyl-2-benzylcarbazoyl-L-phenylalanyl-L-histidine methyl ester], the “Inhibition (%) of swelling of external ear” value in assay [1] came out at 72.6%. In the case of `COC(=O)[C@H](Cc1c[nH]cn1)NC(=O)[C@H](Cc1ccccc1)NC(=O)[C@H](Cc1ccccc1)NC(C)=O` [N-acetyl-L-phenylalanyl-L-phenylalanyl-L-histidine methyl ester] (Ac-Phe-Phe-His-OMe), the immunomodulatory effect result in assay [2] was “scarcely an immunomodulatory effect”.

These data come from patent publication US5202312A, “Imidazole-containing peptides having immunomodulatory activity” (Tanabe Seiyaku Co., Ltd., priority 1988, dated 1993).
